Legend:
[1] = tested on: mixture of bacterial organisms listed in Table 1; experiment: cutting oil preservation test;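 note: colony count scale from 1 for no colonies up to 10 for a solid mass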
Description: (§1) Fifty gram aliquots of the latex were placed in sterile bottles and one hundred gram aliquots of the diluted cutting oil were placed in 250-mL Erlenmeyer flasks. An appropriate amount of a fresh 1 percent stock solution of (2-nitrophenyl)-iodonium 2,2-dimethyl-4,6-dioxo-1,3-dioxan-5-ylide in acetone-water was added to achieve the desired final concentrations (see Tables 5 and 6). A small portion of the respective latex or cutting oil preparation was then streaked onto Tryptic Soy Agar (TSA) petri plates using sterile cotton swabs to determine whether the preparations were sterile. If the particular preparation was sterile, it was then inoculated with an appropriate volume (0.1 mL for the latex and 0.2 mL for the cutting oil) of a mixture of equal aliquots of 24 hr cultures of each of the bacterial organisms listed in Table 1 (not the fungi and yeast). The latex samples were incubated at 30° C. and the cutting oils were agitated on a rotary shaker at room temperature. After 24 hr, all samples were again streaked on TSA. All plates were then incubated at 30° C. for 48 hr and then rated 1 to 10 according to the growth rating system described in Table 4.
(§2) The results from this first set of streaks after inoculation are listed in the columns labeled streak number 1 in Tables 5 and 6. Samples with a rating of 3 or less from streak number 1 were reinoculated as described for the first inoculation above. Samples with a rating of 4 or greater were not reinoculated. After another 24 hr all samples were again restreaked on TSA agar. The results from these second streaks were labeled streak number 2 in Tables 5 and 6. Samples were reinoculated and restreaked in this fashion for a maximum of 10 streaks. Any samples with two streaks in a row with a ten rating were not restreaked again.

[2] = tested on: mixture of bacterial organisms listed in Table 1; experiment: latex preservation test
Description: The latex was a vinylidene chloride-butadiene copolymer with a pH of 6.1.
as §1, §2

For `CC1(C)OC(=O)[C-]([I+]c2ccccc2[N+](=O)[O-])C(=O)O1` [Example 19, (2-Nitrophenyl)-iodonium 2,2-dimethyl-4,6-dioxo-1,3-dioxan-5-ylide], the growth rating ([1]; 25 ppm, streak 1) was 1 (0), the growth rating ([1]; 25 ppm, streak 2) was 9 and the growth rating ([1]; 25 ppm, streak 3) was 10. The growth rating ([1]; 25 ppm, streak 4, restreaking not continued) was 10, the growth rating ([1]; 50 ppm, streak 1) was 1 (0) and the growth rating ([1]; 50 ppm, streak 2) was 2 (1-4). For the same compound, the growth rating ([1]; 50 ppm, streak 3) was 10, the growth rating ([1]; 50 ppm, streak 4, restreaking not continued) was 10 and the growth rating ([1]; 100 ppm, streak 1) was 1 (0). For the same compound, the growth rating ([1]; 100 ppm, streak 2) was 2 (1-4), the growth rating ([1]; 100 ppm, streak 3) was 2 (1-4) and the growth rating ([1]; 100 ppm, streak 4) was 1 (0). For the same compound, the growth rating ([1]; 100 ppm, streak 5) was 10, the growth rating ([1]; 100 ppm, streak 6, restreaking not continued) was 10 and the growth rating ([1]; 250 ppm, streak 1) was 1 (0). For the same compound, the growth rating ([1]; 250 ppm, streak 2) was 1 (0), the growth rating ([1]; 250 ppm, streak 3) was 1 (0) and the growth rating ([1]; 250 ppm, streak 4) was 1 (0). The growth rating ([1]; 250 ppm, streak 5) was 1 (0), the growth rating ([1]; 250 ppm, streak 6) was 1 (0) and the growth rating ([1]; 250 ppm, streak 7) was 1 (0). The growth rating ([1]; 250 ppm, streak 8) was 1 (0), the growth rating ([1]; 250 ppm, streak 9) was 6 (51-100) and the growth rating ([1]; 250 ppm, streak 10) was 10. The growth rating ([1]; 500 ppm, streak 1) was 1 (0), the growth rating ([1]; 500 ppm, streak 2) was 1 (0) and the growth rating ([1]; 500 ppm, streak 3) was 1 (0). The growth rating ([1]; 500 ppm, streak 4) was 1 (0), the growth rating ([1]; 500 ppm, streak 5) was 1 (0) and the growth rating ([1]; 500 ppm, streak 6) was 1 (0). For the same compound, the growth rating ([1]; 500 ppm, streak 7) was 1 (0), the growth rating ([1]; 500 ppm, streak 8) was 1 (0) and the growth rating ([1]; 500 ppm, streak 9) was 1 (0). The growth rating ([1]; 500 ppm, streak 10) was 1 (0), the growth rating ([1]; 1000 ppm, streak 1) was 1 (0) and the growth rating ([1]; 1000 ppm, streak 2) was 1 (0). The growth rating ([1]; 1000 ppm, streak 3) was 1 (0), the growth rating ([1]; 1000 ppm, streak 4) was 1 (0) and the growth rating ([1]; 1000 ppm, streak 5) was 1 (0). For the same compound, the growth rating ([1]; 1000 ppm, streak 6) was 1 (0), the growth rating ([1]; 1000 ppm, streak 7) was 1 (0) and the growth rating ([1]; 1000 ppm, streak 8) was 1 (0). The growth rating ([1]; 1000 ppm, streak 9) was 1 (0), the growth rating ([1]; 1000 ppm, streak 10) was 1 (0) and the growth rating ([2]; 25 ppm, streak 1) was 1 (0). The growth rating ([2]; 25 ppm, streak 2) was 9, the growth rating ([2]; 25 ppm, streak 3) was 1 (0) and the growth rating ([2]; 25 ppm, streak 4) was 1 (0). The growth rating ([2]; 25 ppm, streak 5) was 1 (0), the growth rating ([2]; 25 ppm, streak 6) was 1 (0) and the growth rating ([2]; 25 ppm, streak 7) was 1 (0). The growth rating ([2]; 25 ppm, streak 8) was 1 (0), the growth rating ([2]; 50 ppm, streak 1) was 1 (0) and the growth rating ([2]; 50 ppm, streak 3) was 1 (0). For the same compound, the growth rating ([2]; 50 ppm, streak 4) was 1 (0), the growth rating ([2]; 50 ppm, streak 5) was 1 (0) and the growth rating ([2]; 50 ppm, streak 6) was 1 (0). For the same compound, the growth rating ([2]; 50 ppm, streak 7) was 1 (0), the growth rating ([2]; 50 ppm, streak 8) was 1 (0) and the growth rating ([2]; 50 ppm, streak 9) was 1 (0). For the same compound, the growth rating ([2]; 50 ppm, streak 10) was 1 (0), the growth rating ([2]; 100 ppm, streak 1) was 1 (0) and the growth rating ([2]; 100 ppm, streak 3) was 1 (0). The growth rating ([2]; 100 ppm, streak 4) was 1 (0), the growth rating ([2]; 100 ppm, streak 5) was 1 (0) and the growth rating ([2]; 100 ppm, streak 6) was 1 (0). The growth rating ([2]; 100 ppm, streak 7) was 1 (0), the growth rating ([2]; 100 ppm, streak 8) was 1 (0) and the growth rating ([2]; 100 ppm, streak 9) was 1 (0). For the same compound, the growth rating ([2]; 100 ppm, streak 10) was 1 (0), the growth rating ([2]; 250 ppm, streak 1) was 1 (0) and the growth rating ([2]; 250 ppm, streak 2) was 1 (0). For the same compound, the growth rating ([2]; 250 ppm, streak 3) was 1 (0), the growth rating ([2]; 250 ppm, streak 4) was 1 (0) and the growth rating ([2]; 250 ppm, streak 5) was 1 (0). For the same compound, the growth rating ([2]; 250 ppm, streak 6) was 1 (0), the growth rating ([2]; 250 ppm, streak 7) was 1 (0) and the growth rating ([2]; 250 ppm, streak 8) was 1 (0). The growth rating ([2]; 250 ppm, streak 9) was 1 (0), the growth rating ([2]; 250 ppm, streak 10) was 1 (0) and the growth rating ([2]; 500 ppm, streak 1) was 1 (0). For the same compound, the growth rating ([2]; 500 ppm, streak 2) was 1 (0), the growth rating ([2]; 500 ppm, streak 3) was 1 (0) and the growth rating ([2]; 500 ppm, streak 4) was 1 (0). The growth rating ([2]; 500 ppm, streak 5) was 1 (0), the growth rating ([2]; 500 ppm, streak 6) was 1 (0) and the growth rating ([2]; 500 ppm, streak 7) was 1 (0). The growth rating ([2]; 500 ppm, streak 8) was 1 (0), the growth rating ([2]; 500 ppm, streak 9) was 1 (0) and the growth rating ([2]; 500 ppm, streak 10) was 1 (0). The growth rating ([2]; 1000 ppm, streak 1) was 1 (0), the growth rating ([2]; 1000 ppm, streak 2) was 1 (0) and the growth rating ([2]; 1000 ppm, streak 3) was 1 (0). For the same compound, the growth rating ([2]; 1000 ppm, streak 4) was 1 (0), the growth rating ([2]; 1000 ppm, streak 5) was 1 (0) and the growth rating ([2]; 1000 ppm, streak 6) was 1 (0). The growth rating ([2]; 1000 ppm, streak 7) was 1 (0), the growth rating ([2]; 1000 ppm, streak 8) was 1 (0) and the growth rating ([2]; 1000 ppm, streak 9) was 1 (0). For the same compound, the growth rating ([2]; 1000 ppm, streak 10) was 1 (0).
